For assay [1], the system named is breast carcinoma cell line H3396. As to the kind of experiment: In vitro activity of free drugs. It counts as cell-based. Conditions: free drug. The procedure: The cytotoxic activity of MMAZ and other compounds is evaluated on the Lewis Y positive cell lines OVCAR-3, H3396 breast carcinoma, L2987 lung carcinoma and LS174t colon carcinoma Lewis Y positive cell lines can be assayed for cytotoxicity. To evaluate the cytotoxicity of compounds, cells can be seeded at approximately 5-10,000 per well in 150 μl of culture medium then treated with graded doses of compounds in quadruplicates at the initiation of assay. Cytotoxicity assays are usually carried out for 96 hours after addition of test compounds. Fifty μl of resazurin dye may be added to each well during the last 4 to 6 hours of the incubation to assess viable cells at the end of culture. Dye reduction can be determined by fluorescence spectrometry using the excitation and emission wavelengths of 535 nm and 590 nm, respectively. For analysis, the extent of resazurin reduction by the treated cells can be compared to that of the untreated control cells.

Assay [2] relates to renal cell carcinoma cell line 786-O. As to the kind of experiment: In vitro cytotoxicity of free drugs (resazurin, 96 h). It is filed as cell-based. As to conditions: free drug, read-out: IC50s (nM) 786-O.
Assay [3] deals with renal cell carcinoma cell line Caki-1. The assay is described as above. It is filed as cell-based. As to conditions: free drug, read-out: IC50s (nM) Caki-1.
Assay [4] relates to colon carcinoma cell line HCT-116. Described as above. It counts as cell-based. As to conditions: free drug, read-out: IC50s (nM) HCT-116.
Assay [5] deals with anaplastic large cell lymphoma cell line Karpas 299. Described as above. It counts as cell-based, human. As to conditions: free drug, read-out: IC50s (nM) Karpas 299.
Assay [6] deals with Hodgkin's disease cell line L428. Described as above. It is filed as cell-based. Conditions: free drug, read-out: IC50s (nM) L428.
Assay [7] has as its system Hodgkin's disease cell line L540cy. Described as above. As to conditions: free drug, read-out: IC50s (nM) L540cy. It is filed as cell-based.
In assay [8] the test system is CD70+ 786-O renal cell carcinoma cell line. The assay is described as follows: In vitro efficacy of antibody drug conjugates, 96 hours incubation. It is filed as cell-based.
The test system of assay [9] is CD70+ Caki-1 renal cell carcinoma cell line. Described as above. It is filed as cell-based.
Assay [10] has as its system L428 cell line (CD70+, CD30+). The assay is described as above. It is filed as cell-based.
The test system of assay [11] is CD30+ Karpas 299 cell line. Described as above. It is filed as cell-based, human. Conditions: cAC10 (chimeric anti-CD30) conjugate of the named linker-drug, 4 drugs per antibody. Here is the method:
(§1) To evaluate the cytotoxicity of Exemplary Conjugates, cells are seeded at approximately 5-10,000 per well in 150 μl of culture medium then treated with graded doses of Exemplary Conjugates in quadruplicates at the initiation of assay. Cytotoxicity assays are carried out for 96 hours after addition of test compounds. Fifty μl of the resazurin dye is added to each well during the last 4 to 6 hours of the incubation to assess viable cells at the end of culture. Dye reduction is determined by fluorescence spectrometry using the excitation and emission wavelengths of 535 nm and 590 nm, respectively. For analysis, the extent of resazurin reduction by the treated cells is compared to that of the untreated control cells.
(§2) IC50 values are defined as the concentration where growth is reduced 50% compared with untreated control cultures. Each concentration is tested in quadruplicate. The conjugates contain 4 drugs per antibody.

The next assay relates to CD30+ L540cy cell line. Described as above. It is filed as cell-based. Conditions: cAC10 (chimeric anti-CD30) conjugate of the named linker-drug, 4 drugs per antibody. The procedure:
as §1, §2

Non-standard residues stand in square brackets, D forms with d. Residues, ends and D or L forms follow the SMILES beside them. ξ: configuration not given here. *: point of attachment. Dolaproine = CO[C@@H]([C@@H]1CCCN1)[C@@H](C)C(=O)O; Dil = CC[C@H](C)[C@H](NC)[C@@H](CC(=O)O)OC; X1 = c1ccc(C[C@H](N*)c2nn[nH]n2)cc1; X2 = C[C@@H](N*)[C@@H](O)c1ccccc1; NMeV = CN[C@H](C(=O)O)C(C)C; ξNMeV = CNC(C(=O)O)C(C)C

Molecule `CC[C@H](C)[C@@H]([C@@H](CC(=O)N1CCC[C@H]1[C@H](OC)[C@@H](C)C(=O)N[C@@H](Cc1ccccc1)c1nn[nH]n1)OC)N(C)C(=O)[C@@H](NC(=O)C(NC)C(C)C)C(C)C` (some centres unmarked) [Drug 1003] (H-[ξNMeV]V[Dil][Dolaproine]-X1) showed an IC50 in [1] (Homo sapiens) of 6 nM.
For the molecule `CC[C@H](C)[C@@H]([C@@H](CC(=O)N1CCC[C@H]1[C@H](OC)[C@@H](C)C(=O)N[C@H](C)[C@@H](O)c1ccccc1)OC)N(C)C(=O)[C@@H](NC(=O)[C@@H](NC)C(C)C)C(C)C` [MMAE] (H-[NMeV]V[Dil][Dolaproine]-X2), the IC50 in [1] worked out at 0.7 nM.
Take `CC[C@H](C)[C@@H]([C@@H](CC(=O)N1CCC[C@H]1[C@H](OC)[C@@H](C)C(=O)N[C@@H](Cc1ccccc1)C(=O)O)OC)N(C)C(=O)[C@@H](NC(=O)[C@@H](NC)C(C)C)C(C)C` [MMAF, N-methylvaline-valine-dolaisoleuine-dolaproine-phenylalanine] (H-[NMeV]V[Dil][Dolaproine]F-OH): the IC50 in assay [2] came out at 380 nM; in [3], 234 nM; in assay [4], 310 nM; in [5] it was 240 nM; in [6] it was 58 nM; in assay [7], 130 nM. The molecule also displayed an IC50 in [1] of 15 nM.
With `CO[C@@]12[C@H](COC(N)=O)C3=C(C(=O)C(C)=C(N)C3=O)N1C[C@@H]1N[C@@H]12` [Mitomycin C], the IC50 was 32.3 nM in [2]; 14.5 nM in [3]; 166 nM in assay [4]; 105 nM in assay [5]; 187 nM in [6]; 134 nM in assay [7].
Regarding “MaleimidocaproylNMeValValDilDapphosphonoPhe [mc-MMApF-A]”, in [8], the “IC50 of c1F6 ADCs (ng/mL) 786-O” value is listed as 3.5 ng/mL. Further, the “IC50 of c1F6 ADCs (ng/mL) Caki-1” value in assay [9] came to 8.9 ng/mL. For the same molecule, the “IC50 of cAC10 ADCs (ng/mL) L428” value in assay [10] is listed as 0.423 ng/mL. Besides, the “IC50 of cAC10 ADCs (ng/mL) Karpas 299” value in [11] was determined as 10.9 ng/mL. In addition, the “IC50 of cAC10 ADCs (ng/mL) L540cy” value with CD30+ L540cy cell line was 2.7 ng/mL.
Consider “MaleimidocaproylNMeValValDilDapphosphonoPhe [mc-MMApF-B]”, for which the “IC50 of c1F6 ADCs (ng/mL) 786-O” value in [8] is above 1000 ng/mL. Further, in [9], the “IC50 of c1F6 ADCs (ng/mL) Caki-1” value was above 1000 ng/mL. In addition, the “IC50 of cAC10 ADCs (ng/mL) L428” value in assay [10] is above 5000 ng/mL. For the same molecule, in [11], the “IC50 of cAC10 ADCs (ng/mL) Karpas 299” value is on record as above 5000 ng/mL. The “IC50 of cAC10 ADCs (ng/mL) L540cy” value in the assay with CD30+ L540cy cell line is recorded as above 5000 ng/mL.
As to “MaleimidocaproylValCitp-aminobenzoyl-NMeValValDil-DapphosphonoPhe [mc-vc-PAB-MMApF]”, the “IC50 of c1F6 ADCs (ng/mL) 786-O” value in assay [8] was above 1000 ng/mL. Moreover, the “IC50 of c1F6 ADCs (ng/mL) Caki-1” value in assay [9] came to 29.5 ng/mL.
For mc-MMAF, the “IC50 of c1F6 ADCs (ng/mL) 786-O” value in assay [8] turned out to be 135 ng/mL. Also, the “IC50 of c1F6 ADCs (ng/mL) Caki-1” value in assay [9] stood at 47.3 ng/mL. Also, in assay [10], the “IC50 of cAC10 ADCs (ng/mL) L428” value worked out at 1.3 ng/mL. Besides, in assay [11], the “IC50 of cAC10 ADCs (ng/mL) Karpas 299” value came out at 7.6 ng/mL. The “IC50 of cAC10 ADCs (ng/mL) L540cy” value with CD30+ L540cy cell line is reported as 3.4 ng/mL.

The values are drawn from patent publication US9522194B2, “Methods of using monomethylvaline compositions having phenylalanine carboxy modifications at the C-terminus” (priority 2005, dated 2016).
